Measurements from the CheMixHub viscosity set.

Experiment: xn = mol fraction of the nth substance listed

C=CC#N + CCCCCCO
viscosity [mPa·s], 101.33 kPa
Conditions | x1 = 0.1023 | x1 = 0.2036 | x1 = 0.3089 | x1 = 0.4105 | x1 = 0.5081 | x1 = 0.6117 | x1 = 0.7084 | x1 = 0.8056 | x1 = 0.9019
298.15 K | 3.139 | 2.308 | 1.705 | 1.3 | 1.006 | 0.774 | 0.617 | 0.495 | 0.41
303.15 K | 2.727 | 2.03 | 1.522 | 1.175 | 0.916 | 0.712 | 0.571 | 0.466 | 0.388
308.15 K | 2.38 | 1.799 | 1.365 | 1.063 | 0.84 | 0.661 | 0.533 | 0.439 | 0.37

C=CC#N + CCCCCO
viscosity [mPa·s], 101.33 kPa
Conditions | x1 = 0.1032 | x1 = 0.2077 | x1 = 0.3006 | x1 = 0.4053 | x1 = 0.5035 | x1 = 0.6091 | x1 = 0.7025 | x1 = 0.8042 | x1 = 0.9004
298.15 K | 2.405 | 1.777 | 1.384 | 1.064 | 0.847 | 0.668 | 0.558 | 0.464 | 0.401
303.15 K | 2.107 | 1.58 | 1.24 | 0.965 | 0.774 | 0.619 | 0.52 | 0.436 | 0.382
308.15 K | 1.86 | 1.413 | 1.122 | 0.879 | 0.715 | 0.577 | 0.488 | 0.416 | 0.364

CC(=O)CC(C)=O + CCCCCO
298.15 K, 101 kPa
Conditions | viscosity [mPa·s]
x1 = 0.1 | 2.509
x1 = 0.2 | 1.944
x1 = 0.3 | 1.55
x1 = 0.4 | 1.263
x1 = 0.5 | 1.05
x1 = 0.6 | 0.897
x1 = 0.7 | 0.796
x1 = 0.8 | 0.743
x1 = 0.9 | 0.722

CCC(C)(C)O + CCCCCO
viscosity [mPa·s], 101 kPa
Conditions | 298.15 K | 318.15 K
x2 = 0.051 | 3.666 | 1.715
x2 = 0.1017 | 3.812 | 1.782
x2 = 0.2023 | 4.096 | 1.867
x2 = 0.3041 | 4.309 | 1.974
x2 = 0.4034 | 4.432 | 2.058
x2 = 0.4972 | 4.456 | 2.122
x2 = 0.5939 | 4.415 | 2.167
x2 = 0.6991 | 4.251 | 2.195
x2 = 0.8003 | 4.112 | 2.187
x2 = 0.9012 | 3.939 | 2.174
x2 = 0.9496 | 3.831 | 2.161

CCCCN(CCCC)CCCC + CCCCCO
viscosity [mPa·s], 101.3 kPa
Conditions | x1 = 0.0945 | x1 = 0.1881 | x1 = 0.2845 | x1 = 0.3843 | x1 = 0.4829 | x1 = 0.6148 | x1 = 0.7041 | x1 = 0.798 | x1 = 0.8912
303.15 K | 2.622 | 2.405 | 2.18 | 1.961 | 1.786 | 1.581 | 1.458 | 1.365 | 1.262
313.15 K | 2.122 | 1.91 | 1.714 | 1.551 | 1.415 | 1.266 | 1.188 | 1.118 | 1.054

CN(C)c1ccccc1 + CCCCCO
303.15 K, 101 kPa
Conditions | viscosity [mPa·s]
x1 = 0.0799 | 2.75
x1 = 0.121 | 2.704
x1 = 0.2034 | 2.605
x1 = 0.2784 | 2.506
x1 = 0.3584 | 2.392
x1 = 0.4284 | 2.284
x1 = 0.5047 | 2.158
x1 = 0.5722 | 2.039
x1 = 0.6406 | 1.913
x1 = 0.7103 | 1.777
x1 = 0.781 | 1.635
x1 = 0.8168 | 1.562
x1 = 0.9058 | 1.374
